Experimental data as given in US7138403B2, “2,4,5-trisubstituted thiazolyl derivatives and their antiinflammatory activity” (Janssen Pharmaceutica N.V., priority 2001, dated 2006).

test system: IL-12p40 production; assay: In vitro inhibition of IL-12p40 production in human blood (LPS-stimulated whole blood, ELISA); format: cell-based; details: test dose 1 × 10^−6 M, LPS 100 ng/ml, 24 hours, read-out: % inhib. IL-12 (p40)
Description: In Vitro Inhibition of IL-12p40 Production in Human Blood
Human Whole Blood Stimulation
Peripheral blood from healthy male donors was drawn into heparinized syringes (12.5 U heparin/ml). Blood samples were three-fold diluted in RMPI 1640 medium (Life Technologies, Belgium) supplemented with 2 mM L-glutamine, 100 U/ml penicillin and 100 μg/ml streptomycin, and 300 μl fractions were distributed in 24-well multidisc plates (Nunc, Roskilde, Denmark). Blood samples were preincubated (60 minutes at 37° C.) in a humidified 6% CO2-atmosphere with 100 µl of drug solvent (final concentration 0.02% dimethylsulfoxide in RPMI 1640) or with 100 μl of an appropriate dose of test compound before being stimulated by the addition of 100 μl of lipopolysaccharide at a final concentration of 100 ng/ml. After 24 hours, cell-free supernatant fluids were collected by centrifugation and stored at −20° C. until tested for the presence of IL-12 p40.
Cytokine protein concentrations were determined by sandwich ELISA as described in Van Wauwe et al. (1996, Inflamm Res, 45, 357–363). Murine monoclonals used as capture antibodies to human cytokines were obtained from R&D Systems (Abingdon, United Kingdom) and code named MAB210 and MAB611 for TNF-α and IL-12 p40 respectively. Biotinylated goat polyclonal antibodies used to detect human cytokines were from R&D Systems (BAF210, BAF219). Cytokine levels were calculated from standard curves using recombinant cytokines supplied by R&D Systems.

First: Cc1nc(-c2ccc(C(F)(F)F)cc2)sc1-c1ccnc(C#N)n1 [Compound 40]
Second: Cc1nc(-c2ccc(C(F)(F)F)cc2)sc1-c1ccnc(N)n1 [Compound 9]
The inhibition at 1 µM of the first is higher: 93% for the first, 57% for the second.

First: Cc1nc(-c2ccc(C(F)(F)F)cc2)sc1-c1nc(N)ncc1F [Compound 49]
Second: Cc1nc(-c2ccc(C(F)(F)F)cc2)sc1-c1cc(O)nc(N)n1 [Compound 80]
The inhibition at 1 µM of the first is higher: 92% for the first, 49% for the second.

First: Cc1nc(-c2ccc(C(F)(F)F)cc2)sc1-c1ccnc(NCC(=O)O)n1 [Compound 90]
Second: Cc1nc(-c2ccc(C(F)(F)F)cc2)sc1-c1ccnc(NCCCN)n1 [Compound 38]
The inhibition at 1 µM of the first is lower: 56% for the first, 93% for the second.

In the case of `COc1nccc(-c2sc(-c3ccc(C(F)(F)F)cc3)nc2C)n1` [Compound 83], the inhibition at 1 µM is reported as 59%.

test system: IL-12p70 production; assay: In vitro inhibition of IL-12p70 production in human blood (LPS-stimulated whole blood, ELISA); format: cell-based; details: test dose 1 × 10^−8 M, LPS 100 ng/ml, 24 hours, read-out: % inhib. IL-12 (p70)
Description: In Vitro Inhibition of IL-12p70 Production in Human Blood Human Whole Blood Stimulation Peripheral blood from healthy donors was drawn into heparinized syringes (12.5 U heparin/ml). Blood samples were three-fold diluted in RMPI 1640 medium (Life Technologies, Belgium) supplemented with 2 mM L-glutamine, 100 U/ml penicillin and 100 μg/ml streptomycin, and 200 μl fractions were distributed in 96-well plates (Nunc, Roskilde, Denmark). Blood samples were preincubated (5 minutes at 37° C.) in a humidified 5% CO2-atmosphere with 25 μl of drug solvent (final concentration 0.1% dimethylsulfoxide in RPMI 1640) or with 25 μl of an appropriate dose of test compound before being stimulated by the addition of 25 μl of lipopolysaccharide at a final concentration of 100 ng/ml. After 24 hours, cell-free supernatant fluids were collected by centrifugation and stored at −20° C. until tested for the presence of IL-12. Cytokine Measurements Cytokine protein concentrations were determined by sandwich ELISA as described in Van Wauwe et al. (1996, Inflamm Res, 45,357–363). The quantikine HS kit (R &D HS120, Abingdon, United Kingdom) was used to quantify the cytokine levels (IL12 p70) in the supernatant

Going from `Cc1nc(-c2ccc(C(F)(F)F)cc2)sc1-c1ccnc(NCCC(=O)O)n1` [Compound 84] to `Cc1nc(-c2ccc(C(F)(F)F)cc2)sc1-c1ccnc(N)n1` [Compound 9], the inhibition at 0.01 µM falls from 95% to 92%.

`Cc1nc(-c2ccc(C(F)(F)F)cc2)sc1-c1ncnc(N)n1` [Compound 81] and `Cc1nccc(-c2sc(-c3ccc(C(F)(F)F)cc3)nc2C)n1` [Compound 35] are the same in inhibition at 0.01 µM: 94% for the first, 94% for the second.

`Cc1nc(-c2ccc(C(F)(F)F)cc2)sc1-c1ccnc(N(CCO)CCO)n1` [Compound 70] gave an inhibition at 0.01 µM of 90%.
